Measured values published in patent US20150366911A1, “METHODS FOR REJUVENATING RED BLOOD CELLS” (Biomet Biologics, LLC, priority 2013, published 2015).

How the values were obtained:
[1] = Total Plasma Volume = 2.28 Liters; refer to 2000 Report by Dr. Lobe; cited from earlier work
[2] = Plasma concentration in vivo after transfusion of one unit of 2,3-DPG enhanced cells; conditions: Total Plasma Volume = 2.28 Liters
Procedure: A Y-type tube set is assembled is assembled as shown in FIG. 2 and connected to a unit of RBCs. The tube set includes a 0.2 μm filter. RBC enhancement composition (Rejuvesol® Solution) is transferred to the RBCs via a vented spike to form a treated blood composition. The treated blood composition is mixed and incubated, forming an incubated blood composition. The treated blood composition is centrifuged to form a concentration of RBC and a supernatant. The supernatant is transferred to an empty waste bag, and the concentration of RBCs was resuspended in 100 mL additive solution that was transferred from a second transfer bag.
A Y-type tube set is assembled as shown in FIG. 2 and connected to a unit of 250 mL RBCs. 100 mL additive solution, comprising saline, was transferred to the RBCs. The tube set includes a 0.2 μm filter. 50 mL RBC enhancement composition (Rejuvesol® Solution) was transferred to the RBCs via a vented spike to form a treated blood composition. The treated blood composition was mixed and incubated, forming an incubated blood composition. The incubated blood composition was then diluted with 200 mL wash solution from a first transfer bag containing 200 mL wash solution, forming a diluted blood composition. The diluted blood composition was centrifuged to form a concentration of RBCs and a supernatant. The supernatant was transferred to the now empty first transfer bag, and the concentration of RBCs was resuspended in 100 mL additive solution, which was transferred from a second transfer bag.
Blood processed according to Examples 1 and 2 are analyzed for concentrations of rejuvenation materials in the final processed RBC suspensions, with the following results.

Structure (SMILES)	Plasma Concentration in vivo after transfusion of one unit, Without Further Processing [1] [µM]	Plasma Concentration in vivo after transfusion of one unit, Concept 2, assume 85% Removal [2] [µM]	Plasma Concentration in vivo after transfusion of one unit, Concept 1, assumes 75% Removal [2] [µM]
Nc1ncnc2nc[nH]c12 [Adenine]	110	16	27
CC(O)C(=O)O (stereo not drawn) [Lactate]	2190	330	550
OC[C@H]1O[C@@H](n2cnc3c(O)ncnc32)[C@H](O)[C@@H]1O [Inosine]	2190	330	550
O=c1[nH]c(=O)c2[nH]c(=O)[nH]c2[nH]1 [Uric Acid]	2190	330	550
O=c1[nH]cnc2nc[nH]c12 [Hypoxanthine]	2190	330	550
CC(=O)C(=O)O [Pyruvate]	2190	330	550
